In patent US9572801B2, “Tetrahydronaphthyridinyl propionic acid derivatives and uses thereof” (SciFluor Life Sciences, Inc., priority 2015, dated 2017):

Columns and labels:
αvβ6 = αvβ6 (Homo sapiens, UniProt P06756+P18564); test: αv integrin binding assay, αVβ6-LAP-TGF β1 interaction (integrin coupled beads, flow cytometry); conditions: ligand LAP-TGF β1 (LAP1) 10 nM; integrin 10 nM
Protocol: (§1) αVβ6/αVβ8—LAP-TGF β1 Binding Assay
(§2) Integrins αVβ6/αVβ8 coupled beads are treated with an αVβ6/αVβ8 ligand (e.g., LAP TGF-β1 (LAP1)), and the complex is incubated with a primary antibody (Ab), which can be labeled for detection (e.g., fluorescently labeled), and optionally with a secondary antibody, which can be labeled for detection (e.g., fluorescently labeled). Reaction between integrin coupled beads and the ligand was considered as the full reaction, and reaction without the ligand or a compound of the disclosure was considered as the blank reaction. The complex is analyzed, e.g., by either plate reader or Flow Cytometer, to determine modulation of binding between αVβ6/αVβ8 and the ligand (e.g., LAP-TGF Pβ1) by the compounds of the present application. […]
(§3) The integrin coupled Dyna beads were allowed to interact with respective ligands. The integrin-ligand complex was detected with either Primary/Secondary Antibody conjugated with Fluorescein Isothiocyanate (FITC). […] Fluorescence was measured by Flow Cytometry analysis.
(§4) αVβ6/αVβ8—LAP-TGF β1 interaction: αVβ6/αVβ8 coupled beads were treated with the ligand LAP TGF-β1 (LAP1) at room temperature for 3 hours. […] The complex was analyzed by either plate reader or Flow Cytometer. […]
(§5) Quantification: The samples were acquired using a BD FACSCalibur system and analyzed with BD Cell quest pro Version 6. […]

αvβ8 = αvβ8 (Homo sapiens, UniProt P06756+P26012); test: αv integrin binding assay, αVβ8-LAP-TGF β1 interaction (integrin coupled beads, flow cytometry)
Protocol: as §1, §2, §3, §4, §5

Chain of αvβ8 (P06756 31-992 limits assumed): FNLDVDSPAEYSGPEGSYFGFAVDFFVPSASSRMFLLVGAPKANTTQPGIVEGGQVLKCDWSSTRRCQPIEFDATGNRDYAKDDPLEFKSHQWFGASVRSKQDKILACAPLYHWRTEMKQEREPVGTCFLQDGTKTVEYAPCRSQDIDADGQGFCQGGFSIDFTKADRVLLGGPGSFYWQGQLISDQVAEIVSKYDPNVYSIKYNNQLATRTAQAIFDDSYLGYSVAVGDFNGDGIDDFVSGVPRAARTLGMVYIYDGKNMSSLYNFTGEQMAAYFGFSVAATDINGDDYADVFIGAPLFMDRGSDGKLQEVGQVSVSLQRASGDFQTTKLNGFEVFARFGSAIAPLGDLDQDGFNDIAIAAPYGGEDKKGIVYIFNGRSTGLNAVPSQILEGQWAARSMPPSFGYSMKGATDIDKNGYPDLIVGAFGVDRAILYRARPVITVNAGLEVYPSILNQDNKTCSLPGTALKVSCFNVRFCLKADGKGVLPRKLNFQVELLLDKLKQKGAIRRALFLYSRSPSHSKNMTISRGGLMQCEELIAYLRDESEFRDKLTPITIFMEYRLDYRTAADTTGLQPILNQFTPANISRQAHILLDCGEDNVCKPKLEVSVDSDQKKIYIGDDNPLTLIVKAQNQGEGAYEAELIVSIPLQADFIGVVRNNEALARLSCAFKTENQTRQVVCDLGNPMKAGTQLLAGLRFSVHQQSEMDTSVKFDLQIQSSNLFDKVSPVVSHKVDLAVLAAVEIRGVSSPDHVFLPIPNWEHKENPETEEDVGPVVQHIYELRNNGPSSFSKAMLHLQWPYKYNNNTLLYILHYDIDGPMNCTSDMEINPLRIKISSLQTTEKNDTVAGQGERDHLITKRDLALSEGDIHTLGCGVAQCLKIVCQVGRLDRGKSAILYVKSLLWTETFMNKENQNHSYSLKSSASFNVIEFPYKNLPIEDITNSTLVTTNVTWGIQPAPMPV
Chain of αvβ8 (P26012 43-684 limits assumed): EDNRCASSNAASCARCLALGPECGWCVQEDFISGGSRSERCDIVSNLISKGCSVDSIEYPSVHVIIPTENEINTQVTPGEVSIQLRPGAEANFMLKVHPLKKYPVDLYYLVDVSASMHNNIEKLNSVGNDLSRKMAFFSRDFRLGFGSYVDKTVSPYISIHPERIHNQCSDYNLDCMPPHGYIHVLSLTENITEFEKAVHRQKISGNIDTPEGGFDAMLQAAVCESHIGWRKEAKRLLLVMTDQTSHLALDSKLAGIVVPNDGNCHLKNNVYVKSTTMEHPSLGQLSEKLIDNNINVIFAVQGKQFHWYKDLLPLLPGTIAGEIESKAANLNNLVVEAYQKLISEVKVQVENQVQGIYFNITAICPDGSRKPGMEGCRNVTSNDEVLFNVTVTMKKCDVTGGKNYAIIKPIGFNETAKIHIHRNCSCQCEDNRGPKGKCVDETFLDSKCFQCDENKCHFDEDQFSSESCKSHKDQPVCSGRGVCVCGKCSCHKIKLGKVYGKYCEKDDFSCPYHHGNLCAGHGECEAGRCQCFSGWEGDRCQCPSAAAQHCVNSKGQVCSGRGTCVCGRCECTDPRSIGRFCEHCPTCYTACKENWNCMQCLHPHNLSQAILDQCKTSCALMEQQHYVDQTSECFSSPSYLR
Chain of αvβ6 (P06756 31-992 limits assumed): as the sequence (P06756 31-992 limits assumed) above
Chain of αvβ6 (P18564 22-707 limits assumed): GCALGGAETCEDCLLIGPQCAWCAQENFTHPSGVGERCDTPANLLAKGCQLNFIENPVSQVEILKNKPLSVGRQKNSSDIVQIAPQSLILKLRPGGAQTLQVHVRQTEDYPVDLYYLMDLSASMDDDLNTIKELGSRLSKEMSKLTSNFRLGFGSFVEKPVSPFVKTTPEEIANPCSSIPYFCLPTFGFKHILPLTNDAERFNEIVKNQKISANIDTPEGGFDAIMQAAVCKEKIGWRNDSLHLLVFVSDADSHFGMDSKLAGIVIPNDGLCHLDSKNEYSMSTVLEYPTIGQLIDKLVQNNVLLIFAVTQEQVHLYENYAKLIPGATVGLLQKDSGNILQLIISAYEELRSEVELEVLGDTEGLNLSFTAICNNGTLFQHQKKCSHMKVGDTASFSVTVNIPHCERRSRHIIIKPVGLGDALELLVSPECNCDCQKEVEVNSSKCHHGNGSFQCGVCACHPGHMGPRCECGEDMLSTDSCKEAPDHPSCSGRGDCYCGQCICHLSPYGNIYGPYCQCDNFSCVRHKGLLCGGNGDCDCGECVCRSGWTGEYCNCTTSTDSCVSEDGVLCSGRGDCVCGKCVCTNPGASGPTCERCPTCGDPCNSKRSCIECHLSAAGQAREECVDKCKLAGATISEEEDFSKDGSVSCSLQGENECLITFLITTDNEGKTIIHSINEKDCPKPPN

## COc1ccc([C@H](CC(=O)O)N2CCN(CCCc3ccc4c(n3)NCCC4)C2=O)cn1 [A1, (S)-3-(6-methoxypyridin-3-yl)-3-(2-oxo-3-(3-(5,6,7,8-tetrahydro-1,8-naphthyridin-2-yl)propyl)imidazolidin-1-yl)propanoic acid]
αvβ6
  IC50: 9.57 nM
αvβ8; ligand LAP-TGF β1 (LAP1) 20 nM, integrin 10 nM
  IC50: 17.6 nM
αvβ8; ratio of αvβ8 IC50 to αvβ6 IC50
  αvβ8/αvβ6: 1.83
